Numbers after ± are expanded uncertainties.
Conditions: 298.15 K; 101.33 kPa; Liquid

Row | SMILES | mass density [kg/m3]
1 | CCCC[n+]1ccccc1.F[B-](F)(F)F [1-butylpyridinium tetrafluoroborate] | 1214 ± 1
2 | CCCCCC[n+]1ccccc1.F[B-](F)(F)F [1-hexylpyridinium tetrafluoroborate] | 1154.8 ± 0.8
3 | c1ccccc1 [benzene] | 873.4 ± 0.5
4 | Cc1ccccc1 [toluene] | 862.27 ± 0.53

Continued, values first:

Row | mass density [kg/m3] | SMILES
5 | 1202.5 ± 1 | CCCC[n+]1ccccc1C.F[B-](F)(F)F [1-butyl-2-methylpyridinium tetrafluoroborate]
6 | 1183.1 ± 0.9 | CCCC[n+]1ccc(C)cc1.F[B-](F)(F)F [1-butyl-4-methylpyridinium tetrafluoroborate]

From the NIST ThermoML archive (doi:10.1021/je901065e)
